Measurements as given in US3997549A, “N-arylsulfenylated derivatives of benzofuranyl methylcarbamates” (priority 1973, dated 1976).
Converted amounts (≈) assume the structure as drawn. Like-named read-outs stand apart in the source and are kept apart here.

What was measured:
houseflies = assay: whole plant or invertebrate; conditions: Musca domestica, topical, 24 h, read-out: Houseflies LD50
Protocol: Toxicity of the compounds of the present invention to houseflies was tested using the technique described by March and Metcalf in Bull. Calif. State Dept. Agr. […] Adult female houseflies were treated with one drop of acetone solution, applied to the prothorax, using a syringe calibrated to deliver 1.00 ± 0.05 mm^3 drops. Twenty flies were treated at each dosage, each test compound was applied at 8 to 10 dosage levels. Each test was replicated three times. […] A one-inch square of cotton saturated with 40% sugar solution was provided for food in each carton. The cartons of flies were held in a constant temperature chamber at 60° F and 60% relative humidity for 24 hours before mortality counts were made. Flies totally unable to make crawling or walking movements were counted as dead. LD50 values were calculated in the conventional manner.

Culex fatigans = assay: whole plant or invertebrate; conditions: Culex quinquefasciatus, 24 h, read-out: Mosquitoes LC50
Protocol: The appropriate amount of stock solution was added with stirring to 100 ml of tap water and 20-25 fourth instar larvae of Culex fatigans were placed in the solution. After twenty-four hours, the counts were taken. Larvae not able to rise to the surface on touch were counted as dead. Each concentration was run in duplicate and each material was run on two or three different days. The average percent mortality was plotted against the logarithm of the concentration (in ppm) and the LC50 value determined by inspection.

in vivo = conditions: mouse, po
Protocol: Acute oral toxicity of the compounds of the present invention to mice was determined after the manner of Hollingworth, Fukuto, and Metcalf in J. Agr. […] A dose of 0.25 ml of each solution was administered to each of four female white Swiss mice using the "bolus" - tipped syringe. […] Final mortality determinations were made forty-eight hours after treatment.

Mexican bean beetle [1] = assay: Initial contact activity, Mexican bean beetle; conditions: Epilachna varivestis, 48 h, read-out: % Kill, BB (initial contact)
Mexican bean beetle [2] = assay: Residual contact activity, Mexican bean beetle; conditions: Epilachna varivestis, 48 h, read-out: % Kill, BB (residual contact)
pea aphid [3] = assay: Initial contact activity, pea aphid; conditions: Acyrthosiphon pisum, 48 h, read-out: % Kill, PA (initial contact)
milkweed bug [4] = assay: Residual contact activity, milkweed bug; conditions: Oncopeltus fasciatus, 48 h, read-out: % Kill, MWB (residual contact)
plum curculio [5] = assay: Initial contact activity, plum curculio; conditions: Conotrachelus nenuphar, 48 h, read-out: % Kill, PC (initial contact)
southern army worm [6] = conditions: 2880 min
Mexican bean beetle [7] = assay: whole plant or invertebrate; conditions: Epilachna varivestis, 48 h, read-out: % Kill, BB (systemic)
two-spotted spider mite [8] = assay: Residual contact activity, two-spotted spider mite; conditions: Tetranychus urticae, 48 h, read-out: % Kill, SM (residual contact)
pea aphid [9] = assay: whole plant or invertebrate; conditions: Acyrthosiphon pisum, 48 h, read-out: % Kill, PA (systemic)
two-spotted spider mite [10] = assay: Initial contact activity, two-spotted spider mite; conditions: Tetranychus urticae, 48 h, read-out: % Kill, SM (initial contact)
plum curculio [11] = assay: Residual contact activity, plum curculio; conditions: Conotrachelus nenuphar, 48 h, read-out: % Kill, PC (residual contact)
granary weevil [12] = assay: Initial contact activity, granary weevil; conditions: Sitophilus granarius, 48 h, read-out: % Kill, GW (initial contact)
two-spotted spider mite [13] = assay: whole plant or invertebrate; conditions: Tetranychus urticae, 48 h
granary weevil [14] = assay: Residual contact activity, granary weevil; conditions: Sitophilus granarius, 48 h, read-out: % Kill, GW (residual contact)
milkweed bug [15] = assay: Initial contact activity, milkweed bug; conditions: Oncopeltus fasciatus, 48 h, read-out: % Kill, MWB (initial contact)
southern army worm [16] = assay: Initial contact activity, southern army worm; conditions: 1250 ppm, 48 h exposure
southern army worm [17] = assay: Residual contact activity, southern army worm; conditions: 1250 ppm; 7 days; 2880 min
pea aphid [18] = assay: Residual contact activity, pea aphid; conditions: Acyrthosiphon pisum, 48 h, read-out: % Kill, PA (residual contact)
[19] = 39 ppm soil watering, group printed before the slash (separate test vs carbofuran)
[20] = read-out: % Kill, SM (systemic)

COc1ccc(SN(C)C(=O)Oc2cccc3c2OC(C)(C)C3)cc1 [IX, 2,3-Dihydro-2,2-dimethyl-7-benzofuranyl (4-methoxyphenylthio)(methyl)carbamate]
LD50 (houseflies): 7.8 mg/kg | LC50 (Culex fatigans): 6 ng/mL (≈ 0.0167 µM) | LD50 at 48 h (in vivo): 25 to 50 mg/kg

CN(Sc1nc2ccccc2s1)C(=O)Oc1cccc2c1OC(C)(C)C2 [Example VII, 2,3-Dihydro-2,2-dimethyl-7-benzofuranyl (2-benzothiazolylthio)(methyl)carbamate]
mortality at 1250 ppm (Mexican bean beetle [1]): 91% | mortality at 1250 ppm (Mexican bean beetle [2]): 100% | mortality at 1250 ppm (pea aphid [3]): 100% | mortality at 1250 ppm (milkweed bug [4]): 100% | mortality at 1250 ppm (plum curculio [5]): 100% | % Kill, AW (systemic) (southern army worm [6]; [19]): 0% | % Kill, AW (systemic) (southern army worm [6]; 156 ppm soil watering): 60% | mortality at 39 ppm (Mexican bean beetle [7]): 68% | mortality at 156 ppm (Mexican bean beetle [7]): 81% | mortality at 1250 ppm (two-spotted spider mite [8]): 5% | mortality at 39 ppm (pea aphid [9]): 100% | mortality at 156 ppm (pea aphid [9]): 100% | LD50 (houseflies): 8.5 mg/kg | mortality at 1250 ppm (two-spotted spider mite [10]): 72% | mortality at 1250 ppm (plum curculio [11]): 55% | mortality at 1250 ppm (granary weevil [12]): 100% | mortality at 39 ppm (two-spotted spider mite [13]; [20]): 3% | mortality at 156 ppm (two-spotted spider mite [13]; [20]): 2% | mortality at 1250 ppm (granary weevil [14]): 100% | mortality at 1250 ppm (milkweed bug [15]): 100% | LC50 (Culex fatigans): 9.5 ng/mL (≈ 0.0246 µM) | % Kill, AW (initial contact) (southern army worm [16]): 62% | % Kill, AW (residual contact) (southern army worm [17]): 100% | mortality at 1250 ppm (pea aphid [18]): 0% | LD50 at 48 h (in vivo): 50 mg/kg

CNC(=O)Oc1cccc2c1OC(C)(C)C2 [Carbofuran, 2,3-dihydro-2,2-dimethyl-7-benzofuranyl methylcarbamate, reference compound]
% Kill, AW (systemic) (southern army worm [6]; [19]): 50% | % Kill, AW (systemic) (southern army worm [6]; 39 ppm soil watering, separate test vs carbofuran): 100% | % Kill, AW (systemic) (southern army worm [6]; 156 ppm soil watering): 100% | mortality at 39 ppm (Mexican bean beetle [7]): 100% | mortality at 156 ppm (Mexican bean beetle [7]): 100% | mortality at 39 ppm (pea aphid [9]): 100% | mortality at 156 ppm (pea aphid [9]): 100% | mortality at 39 ppm (two-spotted spider mite [13]; read-out: % Kill, SM (systemic), 39 ppm soil watering, group printed before the slash (separate test vs carbofuran)): 5% | mortality at 39 ppm (two-spotted spider mite [13]; read-out: % Kill, SM (systemic), 39 ppm soil watering, separate test vs carbofuran): 3% | mortality at 156 ppm (two-spotted spider mite [13]; read-out: % Kill, SM (systemic), 156 ppm soil watering, group printed before the slash (separate test vs carbofuran)): 43% | mortality at 156 ppm (two-spotted spider mite [13]; read-out: % Kill, SM (systemic), 156 ppm soil watering, separate test vs carbofuran): 70% | LC50 (Culex fatigans): 52 ng/mL (≈ 0.235 µM) | LD50 at 48 h (in vivo): 2 mg/kg

CC(C)c1ccccc1SN(C)C(=O)Oc1cccc2c1OC(C)(C)C2 [XII, 2,3-Dihydro-2,2-dimethyl-7-benzofuranyl (2-isopropylphenylthio) (methyl)carbamate]
LD50 (houseflies): 8.3 mg/kg | LC50 (Culex fatigans): 3 ng/mL (≈ 0.00808 µM) | LD50 at 48 h (in vivo): 50 to 75 mg/kg

Cc1ccc(SN(C)C(=O)Oc2cccc3c2OC(C)(C)C3)c(C)c1 [XIII, 2,3-Dihydro-2,2-dimethyl-7-benzofuranyl (2,4-dimethylphenylthio)(methyl)carbamate]
LD50 (houseflies): 9 mg/kg | LC50 (Culex fatigans): 3 ng/mL (≈ 0.00839 µM) | LD50 at 48 h (in vivo): 50 to 100 mg/kg

CN(Sc1ccc2ccccc2c1)C(=O)Oc1cccc2c1OC(C)(C)C2 [XVII, 2,3-Dihydro-2,2-dimethyl-7-benzofuranyl (methyl)(2-naphthylthio)carbamate]
LD50 (houseflies): 8 mg/kg | LC50 (Culex fatigans): 3.2 ng/mL (≈ 0.00843 µM) | LD50 at 48 h (in vivo): 40 mg/kg

CN(Sc1ccccc1)C(=O)Oc1cccc2c1OC(C)(C)C2 [Example I, 2,3-Dihydro-2,2-dimethyl-7-benzofuranyl (methyl)(phenylthio)carbamate]
LD50 (houseflies): 9.3 mg/kg | LC50 (Culex fatigans): 4.5 ng/mL (≈ 0.0137 µM) | LD50 at 48 h (in vivo): 25 to 50 mg/kg

CN(Sc1ccc2c(c1)OCO2)C(=O)Oc1cccc2c1OC(C)(C)C2 [XIV, 2,3-Dihydro-2,2-dimethyl-7-benzofuranyl (methyl)(3,4-methylenedioxyphenylthio)carbamate]
mortality at 1250 ppm (Mexican bean beetle [1]): 100% | mortality at 1250 ppm (Mexican bean beetle [2]): 100% | mortality at 1250 ppm (pea aphid [3]): 100% | mortality at 1250 ppm (milkweed bug [4]): 100% | mortality at 1250 ppm (plum curculio [5]): 100% | % Kill, AW (systemic) (southern army worm [6]; [19]): 14% | % Kill, AW (systemic) (southern army worm [6]; 156 ppm soil watering): 64% | mortality at 39 ppm (Mexican bean beetle [7]): 90% | mortality at 156 ppm (Mexican bean beetle [7]): 94% | mortality at 1250 ppm (two-spotted spider mite [8]): 2% | mortality at 39 ppm (pea aphid [9]): 100% | mortality at 156 ppm (pea aphid [9]): 100% | LD50 (houseflies): 5 mg/kg | mortality at 1250 ppm (two-spotted spider mite [10]): 38% | mortality at 1250 ppm (plum curculio [11]): 80% | mortality at 1250 ppm (granary weevil [12]): 100% | mortality at 39 ppm (two-spotted spider mite [13]; [20]): 10% | mortality at 156 ppm (two-spotted spider mite [13]; [20]): 16% | mortality at 1250 ppm (granary weevil [14]): 100% | mortality at 1250 ppm (milkweed bug [15]): 100% | LC50 (Culex fatigans): 6.5 ng/mL (≈ 0.0174 µM) | % Kill, AW (initial contact) (southern army worm [16]): 100% | % Kill, AW (residual contact) (southern army worm [17]): 100% | mortality at 1250 ppm (pea aphid [18]): 10% | LD50 at 48 h (in vivo): 10 to 25 mg/kg

CN(Sc1ccc(Br)cc1)C(=O)Oc1cccc2c1OC(C)(C)C2 [VIII, 2,3-Dihydro-2,2-dimethyl-7-benzofuranyl (4-bromophenylthio)(methyl)carbamate]
LD50 (houseflies): 9 mg/kg | LC50 (Culex fatigans): 4 ng/mL (≈ 0.0098 µM) | LD50 at 48 h (in vivo): 50 to 75 mg/kg

Cc1cc(Br)ccc1SN(C)C(=O)Oc1cccc2c1OC(C)(C)C2 [XI, 2,3-Dihydro-2,2-dimethyl-7-benzofuranyl (4-bromo-2-methylphenylthio)(methyl)carbamate]
mortality at 1250 ppm (Mexican bean beetle [1]): 100% | mortality at 1250 ppm (Mexican bean beetle [2]): 100% | mortality at 1250 ppm (pea aphid [3]): 35% | mortality at 1250 ppm (milkweed bug [4]): 95% | mortality at 1250 ppm (plum curculio [5]): 100% | % Kill, AW (systemic) (southern army worm [6]; [19]): 75% | % Kill, AW (systemic) (southern army worm [6]; 156 ppm soil watering): 100% | mortality at 39 ppm (Mexican bean beetle [7]): 95% | mortality at 156 ppm (Mexican bean beetle [7]): 100% | mortality at 1250 ppm (two-spotted spider mite [8]): 3% | mortality at 39 ppm (pea aphid [9]): 100% | mortality at 156 ppm (pea aphid [9]): 100% | LD50 (houseflies): 11.2 mg/kg | mortality at 1250 ppm (two-spotted spider mite [10]): 9% | mortality at 1250 ppm (plum curculio [11]): 40% | mortality at 1250 ppm (granary weevil [12]): 100% | mortality at 39 ppm (two-spotted spider mite [13]; [20]): 23% | mortality at 156 ppm (two-spotted spider mite [13]; [20]): 28% | mortality at 1250 ppm (granary weevil [14]): 100% | mortality at 1250 ppm (milkweed bug [15]): 100% | LC50 (Culex fatigans): 2.5 ng/mL (≈ 0.00592 µM) | % Kill, AW (initial contact) (southern army worm [16]): 100% | % Kill, AW (residual contact) (southern army worm [17]): 100% | mortality at 1250 ppm (pea aphid [18]): 10% | LD50 at 48 h (in vivo): 100 to 150 mg/kg

CN(Sc1ccc(Cl)cc1)C(=O)Oc1cccc2c1OC(C)(C)C2 [Example V, 2,3-Dihydro-2,2-dimethyl-7-benzofuranyl (4-chlorophenylthio)(methyl)carbamate]
mortality at 1250 ppm (Mexican bean beetle [1]): 100% | mortality at 1250 ppm (Mexican bean beetle [2]): 100% | mortality at 1250 ppm (pea aphid [3]): 100% | mortality at 1250 ppm (milkweed bug [4]): 100% | mortality at 1250 ppm (plum curculio [5]): 100% | % Kill, AW (systemic) (southern army worm [6]; [19]): 50% | % Kill, AW (systemic) (southern army worm [6]; 156 ppm soil watering): 80% | mortality at 39 ppm (Mexican bean beetle [7]): 95% | mortality at 156 ppm (Mexican bean beetle [7]): 100% | mortality at 1250 ppm (two-spotted spider mite [8]): 5% | mortality at 39 ppm (pea aphid [9]): 100% | mortality at 156 ppm (pea aphid [9]): 100% | LD50 (houseflies): 12.5 mg/kg | mortality at 1250 ppm (two-spotted spider mite [10]): 100% | mortality at 1250 ppm (plum curculio [11]): 95% | mortality at 1250 ppm (granary weevil [12]): 100% | mortality at 39 ppm (two-spotted spider mite [13]; [20]): 29% | mortality at 156 ppm (two-spotted spider mite [13]; [20]): 33% | mortality at 1250 ppm (granary weevil [14]): 100% | mortality at 1250 ppm (milkweed bug [15]): 100% | LC50 (Culex fatigans): 2 ng/mL (≈ 0.0055 µM) | % Kill, AW (initial contact) (southern army worm [16]): 100% | % Kill, AW (residual contact) (southern army worm [17]): 100% | mortality at 1250 ppm (pea aphid [18]): 95% | LD50 at 48 h (in vivo): 50 mg/kg

CN(Sc1ccc(C#N)cc1)C(=O)Oc1cccc2c1OC(C)(C)C2 [XV, 2,3-Dihydro-2,2-dimethyl-7-benzofuranyl (4-cyanophenylthio)(methyl)carbamate]
LD50 (houseflies): 22.5 mg/kg | LC50 (Culex fatigans): 22 ng/mL (≈ 0.0621 µM) | LD50 at 48 h (in vivo): 25 to 50 mg/kg
